Results on two compounds are retold here after US9505774B2, “Polymorphic forms of icotinib maleate and uses thereof” (BETTA PHARMACEUTICALS CO., LTD., priority 2013, dated 2016).

A short description of the data set: Pharmacokinetic study of Icotinib hydrochloride and Polymorph Form II of Icotinib maleate, oral suspension, plasma by HPLC. It is filed as in vivo. As to conditions: Sprague-Dawley (SD), rat, fasted male SD rats, oral suspension in sodium carboxymethyl cellulose, dose equivalent to 35 mg/kg Icotinib; for AUC(0-t): read-out: AUC(0-24). The text has this:
Drugs and reagents: the Icotinib hydrochloride used in this study was of Crystalline Form I disclosed by the WO2010/003313. Polymorph Form II of Icotinib maleate and Icotinib hydrochloride were ground to fine particles. The material content (purity) was not less than 99.0%. Sodium carboxymethyl cellulose was medical supply graded.
Experimental animals: SD rats were divided to an Icotinib hydrochloride group and a Polymorph Form II group, with both groups consisting of males.
Pharmaceutical preparation: the amount of each compound was weighed and then sodium carboxymethyl cellulose was added to result in the test compound's concentration of 0.5%. The solid mixture was then added to prepare a suspension thereof at a final concentration of […] in water.
Administration and sample collection: each suspension was administered orally to fasted SD rats at a dose equivalent to 35 mg/kg Icotinib in a dose volume of 5 ml/kg. 0.4 ml of blood was collected in EDTA-K pre anticoagulant tubes at time intervals of 0.5, 1, 1.5, 2, 4, 6, 8 and 24 hrs after the administration of the test compound, centrifuged at 3000 rpm for 10 minutes, and 120 μl plasma was collected and kept in cold storage.
Samples were analyzed by high performance liquid chromatography. The chromatographic conditions utilized C18-silane bonded silica as stationary phase, 0.02 mol/L of sodium dihydrogen phosphate in acetonitrile (40:60, using sodium hydroxide solution to adjust pH to 5.0) as the mobile phase and a detection wavelength of 334 nm. PK profile comparison of Polymorph Form II of Icotinib maleate and Crystalline Form I of Icotinib hydrochloride was summarized in Table 1 and FIG. 3.

Counter-ions that a name gives are not always drawn.

As to `C#Cc1cccc(Nc2ncnc3cc4c(cc23)OCCOCCOCCO4)c1.O=C(O)/C=C\C(=O)O` [Form II, Icotinib maleate], the AUC(0-inf) stood at 65400 ng·h/mL, the Cmax came out at 7530 ng/mL, the Tmax was found to be 5.33 h and the half-life is 3.06 h. Besides, the AUC(0-t) was found to be 64800 ng·h/mL.

Take `C#Cc1cccc(Nc2ncnc3cc4c(cc23)OCCOCCOCCO4)c1` [Icotinib hydrochloride]: the area under the curve AUC(0-inf) was 19100 ng·h/mL, the maximum concentration (Cmax) was found to be 3360 ng/mL, the Tmax amounted to 2.33 h and the half-life was 2.94 h. For the same compound, the AUC(0-t) was determined as 19000 ng·h/mL.
